Test results reported in the supplement of paper PMC10307832.

How the values were obtained:
Assay in all cases: relative viability (nuclei count vs DMSO), 5 days (fraction); higher = more cells survive
Kobe2602 + Crizotinib = compound: C1=CC(=CC=C1NC(=S)NNC2=C(C=C(C=C2[N+](=O)[O-])C(F)(F)F)[N+](=O)[O-])F [Kobe2602] + C[C@@H](Oc1cc(-c2cnn(C3CCNCC3)c2)cnc1N)c1c(Cl)ccc(F)c1Cl [Crizotinib] (partner 1 µM)
Method in brief: (§1)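 The day after seeding in 1536-well plates, lung cancer cell lines were treated by pin tool with a single drug, or with a fixed anchor-drug dose together with five library-drug doses (not always all listed) in √10 steps. After 5 days, a combined fix-and-stain solution (final 0.05% Triton X-100, 1% formaldehyde, 1 ug/ml Hoechst) was added. Nuclei counted on 4× images gave relative viability as treated counts over vehicle counts, reported as the median of duplicate plates.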

Kobe2602 + Bortezomib = compound: C1=CC(=CC=C1NC(=S)NNC2=C(C=C(C=C2[N+](=O)[O-])C(F)(F)F)[N+](=O)[O-])F [Kobe2602] + CC(C)C[C@H](NC(=O)[C@H](Cc1ccccc1)NC(=O)c1cnccn1)B(O)O [Bortezomib] (partner 0.002 µM)
Method in brief: as §1

[1] = compound: COc1cc2nccc(Oc3ccc(NC(=O)C4(C(=O)Nc5ccc(F)cc5)CC4)cc3)c2cc1OC [Cabozantinib] + Nc1ncn([C@H]2C[C@H](O)[C@@H](CO)O2)c(=O)n1 [Decitabine] (partner 2 µM)
Method in brief: as §1

Zosuquidar + Luminespib = compound: O[C@@H](COc1cccc2ncccc12)CN1CCN([C@@H]2c3ccccc3[C@@H]3[C@H](c4ccccc42)C3(F)F)CC1 [Zosuquidar] + CCNC(=O)c1noc(-c2cc(C(C)C)c(O)cc2O)c1-c1ccc(CN2CCOCC2)cc1 [Luminespib] (partner 0.01 µM)
Method in brief: as §1

Cell Line | relative viability (Kobe2602 + Crizotinib; first compound 0.2 µM) | relative viability (Kobe2602 + Crizotinib; first compound 0.6325 µM) | relative viability (Kobe2602 + Crizotinib; first compound 2 µM) | relative viability (Kobe2602 + Crizotinib; first compound 6.325 µM) | relative viability (Kobe2602 + Crizotinib; first compound 20 µM) | relative viability (Kobe2602 + Bortezomib; first compound 0.6325 µM) | relative viability (Kobe2602 + Bortezomib; first compound 2 µM) | relative viability (Kobe2602 + Bortezomib; first compound 6.325 µM) | relative viability (Kobe2602 + Bortezomib; first compound 20 µM) | relative viability ([1]; first compound 0.02 µM) | relative viability ([1]; first compound 0.06325 µM) | relative viability ([1]; first compound 0.2 µM) | relative viability ([1]; first compound 0.6325 µM) | relative viability ([1]; first compound 2 µM) | relative viability (Kobe2602 + Bortezomib; first compound 0.2 µM) | relative viability (Zosuquidar + Luminespib; first compound 0.01 µM) | relative viability (Zosuquidar + Luminespib; first compound 0.03162 µM) | relative viability (Zosuquidar + Luminespib; first compound 0.3162 µM) | relative viability (Zosuquidar + Luminespib; first compound 1 µM) | relative viability (Zosuquidar + Luminespib; first compound 0.1 µM)
IA-LM | 0.64 | 0.671 | 0.718 | 0.789 | 0.703 | 0.873 | 0.707 | 0.765 | 0.759 | – | – | – | – | – | – | – | – | – | – | –
NCI-H520 | 0.694 | 0.711 | 0.746 | 0.757 | 0.763 | 0.713 | 0.511 | 0.593 | 0.537 | 0.525 | 0.602 | 0.519 | 0.547 | 0.504 | 0.612 | 0.226 | 0.192 | 0.193 | 0.206 | –
NCI-H1915 | 0.886 | 0.92 | 0.897 | 0.931 | 0.91 | 0.998 | 0.958 | 0.99 | 0.931 | 0.262 | 0.264 | 0.253 | 0.248 | 0.256 | 1.01 | 0.742 | 0.839 | 0.753 | 0.811 | 0.792
NCI-H1299 | 0.922 | 0.938 | 0.93 | 0.952 | 0.925 | 0.982 | 0.986 | 1.07 | 0.995 | – | – | – | – | – | 1.01 | – | – | – | – | –
HCC-827 | 0.925 | 0.921 | 0.903 | 0.91 | 0.859 | 1.15 | 0.965 | 1.01 | 1.08 | 0.28 | 0.362 | – | 0.36 | 0.309 | 1.09 | 0.518 | 0.576 | 0.704 | 0.7 | 0.501
EMC-BAC-2 | 0.759 | 0.799 | 0.754 | 0.755 | 0.747 | 1.17 | 1.06 | 1.12 | 1.12 | 0.998 | 0.963 | 1.04 | 0.994 | 1.13 | 1.08 | 1.19 | 1.19 | 1.29 | 1.11 | 1.05
NCI-H650 | 0.683 | 0.692 | 0.854 | 0.849 | 0.636 | 1.07 | 0.676 | 0.912 | 0.956 | 0.315 | 0.372 | 0.45 | 0.338 | 0.304 | 0.882 | 0.96 | 0.764 | 0.777 | 0.904 | 0.809
NCI-H1792 | 0.965 | 0.928 | 0.985 | 0.726 | 1.05 | 0.901 | 1.09 | 0.985 | 0.986 | – | 0.557 | 0.609 | 0.588 | 0.444 | 0.965 | 0.334 | 0.234 | 0.673 | 0.293 | 0.38
NCI-H2009 | 1.02 | 1.03 | 1.01 | 1.05 | 1.03 | 1.11 | 0.97 | 1.04 | 0.949 | 0.305 | 0.384 | 0.447 | 0.394 | 0.405 | 0.961 | 1 | 1.07 | 1.02 | 0.989 | 0.986
